According to the NIST ThermoML archive (doi:10.1016/j.fluid.2007.06.001):
± gives the expanded uncertainty stated by the source.

Key:
[1] = excess molar enthalpy (molar enthalpy of mixing); xn = mol fraction of the nth substance listed; conditions: Liquid
[2] = Liquid

CCn1cc[n+](C)c1.O=S(=O)([N-]S(=O)(=O)C(F)(F)F)C(F)(F)F + CCO
[1], 323.15 K, 101.3 kPa
Conditions	excess molar enthalpy [kcal/mol]
x2 = 0.0529	0.0909 ± 0.00382
x2 = 0.1017	0.163 ± 0.00621
x2 = 0.1885	0.297 ± 0.0108
x2 = 0.3291	0.463 ± 0.0165
x2 = 0.5246	0.586 ± 0.0208
x2 = 0.7259	0.525 ± 0.0186
x2 = 0.8436	0.384 ± 0.0139
x2 = 0.9687	0.105 ± 0.0043

CCCCCC[n+]1ccn(C)c1.O=S(=O)([N-]S(=O)(=O)C(F)(F)F)C(F)(F)F + Cc1ccccc1
[1], 363.15 K, 101 kPa
Conditions	excess molar enthalpy [kcal/mol]
x2 = 0.0501	-0.0218 ± 0.00141
x2 = 0.1001	-0.0441 ± 0.00213
x2 = 0.1501	-0.0645 ± 0.00287
x2 = 0.2002	-0.0866 ± 0.00359
x2 = 0.3002	-0.125 ± 0.00502
x2 = 0.4503	-0.169 ± 0.00645
x2 = 0.6003	-0.183 ± 0.00693
x2 = 0.7002	-0.164 ± 0.00621
x2 = 0.8002	-0.116 ± 0.00454
x2 = 0.8501	-0.0868 ± 0.00359
x2 = 0.9001	-0.0571 ± 0.00263
x2 = 0.9501	-0.0288 ± 0.00163

CCCC[n+]1ccn(C)c1.O=S(=O)([N-]S(=O)(=O)C(F)(F)F)C(F)(F)F + Cc1ccccc1
[1], 363.15 K, 101 kPa
Conditions	excess molar enthalpy [kcal/mol]
x2 = 0.0653	-0.023 ± 0.00146
x2 = 0.1255	-0.0435 ± 0.0021
x2 = 0.1811	-0.0624 ± 0.00263
x2 = 0.2325	-0.0772 ± 0.00335
x2 = 0.2803	-0.0908 ± 0.00382
x2 = 0.3249	-0.101 ± 0.00406
x2 = 0.4054	-0.122 ± 0.00478
x2 = 0.4761	-0.133 ± 0.00526
x2 = 0.5389	-0.139 ± 0.00526
x2 = 0.6451	-0.135 ± 0.00526
x2 = 0.7317	-0.108 ± 0.0043
x2 = 0.8035	-0.0824 ± 0.00335
x2 = 0.8911	-0.0447 ± 0.00213
x2 = 0.9608	-0.0171 ± 0.00127

CCCCCC[n+]1ccn(C)c1.O=S(=O)([N-]S(=O)(=O)C(F)(F)F)C(F)(F)F + c1ccccc1
[1], 363.15 K, 101 kPa
Conditions	excess molar enthalpy [kcal/mol]
x2 = 0.0854	-0.0378 ± 0.00191
x2 = 0.1608	-0.0698 ± 0.00311
x2 = 0.2279	-0.0993 ± 0.00406
x2 = 0.288	-0.12 ± 0.00478
x2 = 0.3421	-0.142 ± 0.0055
x2 = 0.3912	-0.163 ± 0.00621
x2 = 0.4765	-0.191 ± 0.00717
x2 = 0.5482	-0.21 ± 0.00789
x2 = 0.6094	-0.214 ± 0.00789
x2 = 0.7082	-0.206 ± 0.00765
x2 = 0.7845	-0.183 ± 0.00693
x2 = 0.8452	-0.138 ± 0.00526
x2 = 0.9161	-0.0683 ± 0.00287
x2 = 0.9704	-0.0212 ± 0.00141

CCCC[n+]1ccn(C)c1.O=S(=O)([N-]S(=O)(=O)C(F)(F)F)C(F)(F)F + c1ccccc1
[1], 101.3 kPa
Conditions	excess molar enthalpy [kcal/mol]
363.15 K, x2 = 0.0498	-0.0235 ± 0.00148
363.15 K, x2 = 0.0997	-0.0451 ± 0.00215
363.15 K, x2 = 0.1495	-0.0678 ± 0.00287
363.15 K, x2 = 0.1994	-0.0875 ± 0.00359
363.15 K, x2 = 0.2992	-0.127 ± 0.00502
363.15 K, x2 = 0.4491	-0.176 ± 0.00669
363.15 K, x2 = 0.5991	-0.206 ± 0.00765
363.15 K, x2 = 0.6992	-0.198 ± 0.00741
363.15 K, x2 = 0.7994	-0.147 ± 0.00574
363.15 K, x2 = 0.8495	-0.112 ± 0.00454
363.15 K, x2 = 0.8997	-0.0716 ± 0.00311
363.15 K, x2 = 0.9498	-0.0353 ± 0.00184
413.15 K, x2 = 0.1462	-0.0688 ± 0.00287
413.15 K, x2 = 0.2087	-0.0954 ± 0.00382
413.15 K, x2 = 0.2654	-0.12 ± 0.00478
413.15 K, x2 = 0.3172	-0.142 ± 0.0055
413.15 K, x2 = 0.3647	-0.166 ± 0.00621
413.15 K, x2 = 0.4485	-0.196 ± 0.00741
413.15 K, x2 = 0.5202	-0.212 ± 0.00789
413.15 K, x2 = 0.5823	-0.22 ± 0.00813
413.15 K, x2 = 0.6844	-0.217 ± 0.00813
413.15 K, x2 = 0.7648	-0.186 ± 0.00693
413.15 K, x2 = 0.8299	-0.142 ± 0.0055
413.15 K, x2 = 0.907	-0.0792 ± 0.00335
413.15 K, x2 = 0.967	-0.0313 ± 0.00172

CCCCCCCCC [nonane]
Conditions	vapor or sublimation pressure [kPa]
[2], 353.15 K	9.65 ± 0.47

C=CCCCCCC [oct-1-ene]
Conditions	vapor or sublimation pressure [kPa]
[2], 363.15 K	38.51 ± 1.4

C=CCCCCCC [oct-1-ene] + CCCCCC[n+]1ccn(C)c1.O=S(=O)([N-]S(=O)(=O)C(F)(F)F)C(F)(F)F
[1], 413.15 K, 101 kPa
Conditions	excess molar enthalpy [kcal/mol]
x1 = 0.0504	0.0404 ± 0.00198
x1 = 0.0982	0.0729 ± 0.00311
x1 = 0.1437	0.102 ± 0.00406
x1 = 0.1869	0.131 ± 0.00502
x1 = 0.2281	0.142 ± 0.0055
x1 = 0.2675	0.141 ± 0.0055
x1 = 0.3409	0.13 ± 0.00502
x1 = 0.4082	0.116 ± 0.00454
x1 = 0.47	0.103 ± 0.00406
x1 = 0.5797	0.0815 ± 0.00335
x1 = 0.6742	0.0617 ± 0.00263
x1 = 0.7563	0.0472 ± 0.00222
x1 = 0.8613	0.0272 ± 0.00158

CCCCCCCC [octane]
Conditions	vapor or sublimation pressure [kPa]
[2], 353.15 K	23.16 ± 0.9

CCC(=O)CC [pentan-3-one] + CCCCCC[n+]1ccn(C)c1.O=S(=O)([N-]S(=O)(=O)C(F)(F)F)C(F)(F)F
[1], 353.15 K, 101 kPa
Conditions	excess molar enthalpy [kcal/mol]
x1 = 0.0503	-0.0247 ± 0.00151
x1 = 0.1005	-0.0527 ± 0.00239
x1 = 0.1507	-0.0794 ± 0.00335
x1 = 0.2009	-0.107 ± 0.0043
x1 = 0.3011	-0.156 ± 0.00598
x1 = 0.4013	-0.198 ± 0.00741
x1 = 0.5013	-0.24 ± 0.00884
x1 = 0.6013	-0.266 ± 0.0098
x1 = 0.7011	-0.276 ± 0.01
x1 = 0.8009	-0.249 ± 0.00908
x1 = 0.9005	-0.177 ± 0.00669
x1 = 0.9503	-0.109 ± 0.0043
